The source of these data is patent US8232406B2, “c-MET protein kinase inhibitors” (Vertex Pharmaceuticals Incorporated, priority 2006, dated 2012).

The test concerns the target c-MET (Homo sapiens, UniProt P08581). Briefly: Ki determination for the inhibition of c-MET (standard radiometric 33P-ATP kinase assay, polyE4Y substrate). The class given is biochemical. The note with it: 1.0 nM c-Met, 35 μM ATP, 0.5 mg/mL polyE4Y, 20 min; competitive tight-binding fit. How it is done: Ki Determination for the Inhibition of c-MET
Compounds of the invention were screened for their ability to inhibit c-MET kinase activity using a standard radiometric assay. Briefly, in this kinase assay the transfer of the terminal ^33P-phosphate in ^33P-ATP to substrate polyE4Y is interrogated. The assay was carried out in 96-well plates to a final volume of 100 μL per well containing 1.0 nM c-Met, 100 mM HEPES (pH 7.5), 10 mM MgCl2, 25 mM NaCl, 0.01% BSA, 1 mM DTT, 0.5 mg/mL polyE4Y, and 35 μM ATP. Accordingly, compounds of the invention were dissolved in DMSO to make 10 mM initial stock solutions. Serial dilutions in DMSO were then made to obtain the final solutions for the assay. A 1.5 μL aliquot of DMSO or inhibitor in DMSO was added to each well. The reaction was initiated by the addition of ^33P-ATP and polyE4Y (obtained from Sigma). After 20 min, the reaction was quenched with 50 μL of 30% trichloroacetic acid (TCA) containing 4 mM ATP. The reaction mixture was transferred to the 0.66 mm GF filter plates (Corning) and washed three times with 5% TCA. Following the addition of 50 μL of Ultimate Gold™ high efficiency scintillant (Packard Bioscience), the samples were counted in a Packard TopCount NXT Microplate Scintillation and Luminescence Counter (Packard BioScience). The Ki values were calculated using Microsoft Excel Solver macros to fit the data to the kinetic model for competitive tight-binding inhibition.

A value given as a limit tells only on which side of the number the result lay.

c-MET, sequence (P08581 25-1390): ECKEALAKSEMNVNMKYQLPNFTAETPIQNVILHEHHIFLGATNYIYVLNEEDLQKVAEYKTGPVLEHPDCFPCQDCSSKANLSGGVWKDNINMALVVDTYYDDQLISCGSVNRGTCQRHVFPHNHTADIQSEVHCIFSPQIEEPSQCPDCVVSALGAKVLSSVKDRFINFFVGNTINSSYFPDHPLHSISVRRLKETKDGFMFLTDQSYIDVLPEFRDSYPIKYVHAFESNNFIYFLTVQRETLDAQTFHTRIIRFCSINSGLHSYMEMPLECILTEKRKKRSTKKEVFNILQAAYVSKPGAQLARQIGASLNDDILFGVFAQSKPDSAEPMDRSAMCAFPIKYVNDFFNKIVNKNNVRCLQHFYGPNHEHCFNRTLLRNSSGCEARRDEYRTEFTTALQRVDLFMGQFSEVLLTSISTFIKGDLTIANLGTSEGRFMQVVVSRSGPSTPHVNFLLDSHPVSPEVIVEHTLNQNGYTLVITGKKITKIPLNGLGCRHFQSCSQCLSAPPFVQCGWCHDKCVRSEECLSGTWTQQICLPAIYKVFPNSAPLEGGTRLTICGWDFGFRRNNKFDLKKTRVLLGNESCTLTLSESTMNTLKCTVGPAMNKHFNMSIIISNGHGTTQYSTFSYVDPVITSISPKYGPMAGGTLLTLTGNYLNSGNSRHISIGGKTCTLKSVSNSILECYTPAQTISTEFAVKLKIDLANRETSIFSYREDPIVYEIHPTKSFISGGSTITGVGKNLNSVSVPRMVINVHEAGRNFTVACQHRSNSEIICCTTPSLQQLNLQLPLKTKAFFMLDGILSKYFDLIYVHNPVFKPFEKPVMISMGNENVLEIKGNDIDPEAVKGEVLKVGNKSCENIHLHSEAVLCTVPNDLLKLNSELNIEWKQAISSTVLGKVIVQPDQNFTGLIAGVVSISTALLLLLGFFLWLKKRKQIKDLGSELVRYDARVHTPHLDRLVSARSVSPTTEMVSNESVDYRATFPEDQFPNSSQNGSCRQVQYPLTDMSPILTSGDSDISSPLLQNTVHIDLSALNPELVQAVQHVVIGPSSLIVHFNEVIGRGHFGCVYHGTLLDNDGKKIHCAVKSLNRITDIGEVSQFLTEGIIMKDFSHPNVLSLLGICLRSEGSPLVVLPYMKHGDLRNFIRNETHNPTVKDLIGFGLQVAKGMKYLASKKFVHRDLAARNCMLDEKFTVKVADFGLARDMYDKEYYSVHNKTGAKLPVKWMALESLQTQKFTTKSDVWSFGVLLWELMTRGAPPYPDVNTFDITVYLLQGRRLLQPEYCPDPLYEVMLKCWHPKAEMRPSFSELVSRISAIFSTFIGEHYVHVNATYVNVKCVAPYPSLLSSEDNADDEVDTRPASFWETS

Consider `COc1c(F)cccc1-n1nnnc1-c1cc(-c2ccc(CN3CCCC3)cc2)cnc1N` [I-A-604], for which the Ki was 100 to 1000 nM. Compound `Nc1ncc(-c2cccnc2)cc1-c1nnnn1-c1c(F)cccc1F` [I-A-608] registered a Ki of 100 to 1000 nM. Turning to `Nc1ncc(C2=CCN(C(=O)[C@@H]3CCC(=O)N3)CC2)cc1-c1nnnn1-c1cccc(F)c1F` [I-A-642], the Ki was not above 100 nM.

On to `Cc1nnc(-c2cc(-c3cnn(C4CCNCC4)c3)cnc2N)n1-c1cccc(F)c1Cl` [I-A-390], for which the Ki lay in the range of 100 to 1000 nM. The compound `Nc1ncc(-c2cnn(C3CCNCC3)c2)nc1-c1nnnn1-c1cccc(F)c1F` [I-A-468] returned a Ki not above 100 nM. For `Nc1ncc(-c2cc3c(s2)CCNCC3)cc1-n1nnnc1-c1cccc(F)c1F` [I-E-2], the Ki lay within 100 to 1000 nM. The figure for `CN(C)Cc1ccc(-c2cnc(N)c(-c3nnnn3-c3cccc(Cl)c3)c2)cc1` [I-A-358] is 100 to 1000 nM. The figure for `CC(c1ccc(-c2cnc(N)c(-c3nnnn3-c3cccc(F)c3F)c2)s1)N1CCCC1` (stereo not drawn) [I-A-262] is not above 100 nM. Take `CC(=O)N1CCCC1c1ccc(-c2cnc(N)c(-c3nnnn3-c3cccc(F)c3F)c2)cc1` (stereo not drawn) [I-A-335]: the Ki is not above 100 nM.

Consider `Nc1ncc(-c2ccc(CN3CCCC3)cc2)cc1-c1nnnn1-c1cccc(Cl)c1Cl` [I-A-94], for which the Ki is not above 100 nM.

In turn, `Nc1ncc(-c2cccc(F)c2)cc1-c1nnnn1-c1cccc(F)c1F` [I-A-314] gave an inhibition constant Ki not above 100 nM.

Compound `Cn1cnc(-c2cnc(N)c(-c3nnnn3-c3cccc(F)c3F)c2)c1` [I-A-495] had a Ki of 100 to 1000 nM.

Regarding `CC(C)C(=O)Nc1cccc(-c2cnc(N)c(-c3nnnn3-c3cccc(F)c3F)c2)c1` [I-A-260], the Ki is 100 to 1000 nM. The compound `Nc1ncc(-c2ccc(NC(=O)c3ccco3)cc2)cc1-c1nnnn1-c1cccc(F)c1F` [I-A-162] returned a Ki of 100 to 1000 nM. The figure for `Nc1ncc(-c2ccc(CN3CCCC3)c(F)c2)cc1-c1nnnn1-c1cccc(F)c1F` [I-A-213] is not above 100 nM; for `Nc1ncc(-c2cnn([C@H]3CCNC3)c2)cc1-c1nnnn1-c1cccc(F)c1F` [I-A-412] it is not above 100 nM. In turn, `CN(C)Cc1ccc(-c2cnc(N)c(-c3nc4cc(F)ccc4n3-c3cccc(Cl)c3F)c2)cc1` [I-D-22] registered an inhibition constant (Ki) of 100 to 1000 nM. The figure for `Nc1ncc(-c2cc3c(s2)CCNCC3)cc1-c1nnnn1-c1cccc(F)c1F` [I-A-430, 3-(1-(2,3-Difluorophenyl)-1H-tetrazol-5-yl)-5-(5,6,7,8-tetrahydro-4H-thieno[3,2-d]azepin-2-yl)pyridin-2-amine] is not above 100 nM. The figure for `CC(=O)Nc1cccc(-c2cnc(N)c(-c3nnnn3-c3c(F)cccc3F)c2)c1` [I-A-610] is 100 to 1000 nM; for `C[C@H](c1ccc(-c2cnc(N)c(-c3nnnn3-c3cccc(F)c3F)c2)cc1)N(C)C` [I-A-152] it is not above 100 nM. Regarding `Nc1ncc(-c2cnn(C3CCOCC3)c2)cc1-c1nnnn1-c1cccc(Cl)c1F` [I-A-397], the Ki was not above 100 nM.

In turn, `Nc1ncc(-c2cccc([N+](=O)[O-])c2)cc1-c1nnnn1-c1cccc(F)c1F` [I-A-239] had a Ki not above 100 nM. The figure for `CC(=O)Nc1ccc(-c2cnc(N)c(-c3nncn3-c3cccc(Cl)c3Cl)c2)cc1` [I-A-76] is 100 to 1000 nM; for `Nc1ncc(-c2ccc(CN3CCCC3)cc2)cc1-n1nnnc1-c1cccc(F)c1F` [I-E-4] it is 100 to 1000 nM; for `CN(C)Cc1ccc(-c2cnc(N)c(-c3nnnn3-c3cc(F)ccc3F)c2)cc1` [I-A-580] it is 100 to 1000 nM. The figure for `CC(=O)Nc1ccc(-c2cnc(N)c(-c3nnnn3-c3cccc(Cl)c3C)c2)cc1` [I-A-575] is 100 to 1000 nM. The figure for `Cc1ccc(Cl)cc1-n1nnnc1-c1cc(-c2cnn(C3CCNCC3)c2)cnc1N` [I-A-632] is 100 to 1000 nM. `Nc1ncc(C2=CCNCC2)cc1-c1nnnn1-c1cccc(F)c1F` [I-A-525] displayed a Ki of 100 to 1000 nM. For the compound `Nc1ncc(-c2ccc(NC(=O)CN3CCCC3)cc2)cc1-c1nnnn1-c1cccc(F)c1F` [I-A-184], the Ki was not above 100 nM. `CC(C)N1CCC(n2cc(-c3cnc(N)c(-c4nncn4-c4cccc(Cl)c4F)c3)cn2)CC1` [I-A-471] registered a Ki not above 100 nM. The figure for `Nc1ncc(-c2cnn([C@H]3CCNC3)c2)nc1-c1nnnn1-c1cccc(F)c1F` [I-A-536] is not above 100 nM; for `Nc1ncc(-c2cccnc2)cc1-c1nnnn1-c1cccc(Cl)c1Cl` [I-A-83] it is 100 to 1000 nM. `Nc1ncc(-c2ccc(CN3CCCC3)c(O)c2)cc1-c1nnnn1-c1cccc(F)c1F` [I-A-391] displayed a Ki not above 100 nM. The figure for `Nc1ccc(-c2cnc(N)c(-c3nncn3-c3cccc(F)c3F)n2)cc1` [I-A-10] is not above 100 nM; for `Nc1ccc(-c2cnc(N)c(-c3nnnn3-c3cccc(F)c3F)c2)cc1[N+](=O)[O-]` [I-A-312] it is not above 100 nM; for `Nc1ncc(-c2cnn(C3CCNCC3)c2)cc1-n1nnnc1-c1cccc(F)c1F` [I-E-1] it is 100 to 1000 nM. The compound `Nc1ncc(-c2ccoc2)cc1-c1nnnn1-c1cccc(F)c1F` [I-A-497] showed a Ki not above 100 nM. The compound `Nc1ncc(-c2ccc(CN3CCCC3)cc2)cc1-c1nnnn1-c1cccc(F)c1Cl` [I-A-386] displayed a Ki of 100 to 1000 nM. `CCNC(=O)Nc1nc2cc(-c3cnc(N)c(-c4nnnn4-c4cccc(Cl)c4Cl)c3)c(F)cc2[nH]1` [I-A-93]: the Ki lay within 100 to 1000 nM.

On to `CN(CCc1ccccn1)Cc1ccc(-c2cnc(N)c(-c3nnnn3-c3cccc(Cl)c3Cl)c2)cc1` [I-A-102], for which the Ki lay within 100 to 1000 nM. As for `Nc1ncc(-c2cnn([C@@H]3CCNC3)c2)cc1-c1nnnn1-c1cccc(Cl)c1F` [I-A-538], the Ki is not above 100 nM. The figure for `Nc1ncc(-c2ccc(N3CC(=O)NC3=O)cc2)cc1-c1nnnn1-c1cccc(F)c1F` [I-A-256] is not above 100 nM; for `CN(C)C1CCN(Cc2ccc(-c3cnc(N)c(-c4nnnn4-c4cccc(F)c4F)c3)cc2)C1` (stereo not drawn) [I-A-147] it is not above 100 nM.

`Nc1ncc(-c2cnn(CC(O)CO)c2)cc1-c1nnnn1-c1cccc(F)c1F` (stereo not drawn) [I-A-368] came in with a Ki not above 100 nM. The figure for `Nc1ncc(-c2ccc(CN3CC4CC3CO4)cc2)cc1-c1nnnn1-c1cccc(F)c1F` (stereo not drawn) [I-A-265] is not above 100 nM; for `CS(=O)(=O)Nc1ccc(-c2cnc(N)c(-c3nnnn3-c3cccc(F)c3F)c2)cc1` [I-A-353] it is 100 to 1000 nM; for `Nc1ncc(-c2ccc(C(N)C(=O)O)cc2)cc1-c1nnnn1-c1cccc(F)c1F` (stereo not drawn) [I-A-205] it is 100 to 1000 nM. The figure for `Cc1nn(C2CCNCC2)c(C)c1-c1cnc(N)c(-c2nnnn2-c2cccc(F)c2F)c1` [I-A-478] is 100 to 1000 nM.

With `CC(=O)N1CCC(n2cc(-c3cnc(N)c(-c4nncn4-c4cccc(Cl)c4F)c3)cn2)CC1` [I-A-450], the Ki was not above 100 nM. The figure for `Nc1ncc(-c2ccc3c(c2)CNCC3)cc1-c1nnnn1-c1cccc(F)c1F` [I-A-456] is not above 100 nM; for `Nc1ncc(-c2ccn(C3CCNCC3)c2)cc1-c1nnnn1-c1cccc(F)c1F` [I-A-464] it is not above 100 nM; for `Nc1ncc(-c2ccc(C3CCNCC3)cc2)cc1-n1nnnc1-c1cccc(F)c1F` [I-E-3] it is 100 to 1000 nM. On to `Nc1ncc(-c2cccnc2)cc1-c1nnnn1-c1cc(Cl)ccc1F` [I-A-554], for which the Ki lay within 100 to 1000 nM. The figure for `Nc1nc2cc(F)c(-c3cnc(N)c(-c4nnnn4-c4cccc(F)c4F)n3)cc2[nH]1` [I-A-52] is not above 100 nM. The figure for `Nc1ncc(-c2cnn(C3CCNCC3)c2)cc1-c1nnnn1-c1cc(F)ccc1F` [I-A-625] is 100 to 1000 nM; for `Nc1ncc(-c2ccc(F)nc2)cc1-c1nnnn1-c1cccc(F)c1F` [I-A-318] it is 100 to 1000 nM; for `Nc1ncc(C2=CCN(C3CCNCC3)CC2)cc1-c1nnnn1-c1cccc(F)c1F` [I-A-424] it is 100 to 1000 nM. For `CC(=O)Nc1cccc(-c2cnc(N)c(-c3nnnn3-c3cc(Cl)ccc3F)c2)c1` [I-A-568], the Ki fell in the range of 100 to 1000 nM. The figure for `Nc1ncc(C2=CCN(C(=O)C3CC3)CC2)cc1-c1nnnn1-c1cccc(F)c1F` [I-A-523] is not above 100 nM. Turning to `COc1ccc(F)cc1-n1nnnc1-c1cc(-c2cnn(C3CCNCC3)c2)cnc1N` [I-A-633], the Ki was 100 to 1000 nM. The figure for `Nc1ncc(-c2cc(F)cc(F)c2)cc1-c1nnnn1-c1cccc(F)c1F` [I-A-288] is 100 to 1000 nM. The figure for `CN(C)CCn1cc(-c2cnc(N)c(-c3nnnn3-c3cccc(F)c3F)c2)cn1` [I-A-406] is not above 100 nM. The figure for `CC(=O)c1ccc(-c2cnc(N)c(-c3nnnn3-c3cccc(Cl)c3Cl)c2)cc1` [I-A-88] is 100 to 1000 nM; for `Nc1ncc(-c2ccc(F)cc2)cc1-c1nncn1-c1cccc(F)c1F` [I-A-112] it is 100 to 1000 nM. Compound `N#CCC(=O)Nc1ccc(-c2cnc(N)c(-c3nnnn3-c3cccc(F)c3F)c2)cc1` [I-A-334] gave a Ki not above 100 nM. The figure for `Nc1ncc(-c2cnn(C3CCCNCC3)c2)nc1-c1nnnn1-c1cccc(F)c1F` (stereo not drawn) [I-A-656] is not above 100 nM; for `N#Cc1cccc(-c2cnc(N)c(-c3nncn3-c3cccc(F)c3F)n2)c1` [I-A-30] it is 100 to 1000 nM; for `Nc1ncc(-c2nc3c(s2)CNCC3)cc1-c1nnnn1-c1cccc(Cl)c1F` [I-A-533] it is 100 to 1000 nM.

The compound `Nc1ncc(-c2cnn(C3CCN(CCF)CC3)c2)cc1-c1nncn1-c1cccc(Cl)c1F` [I-A-459] gave a Ki not above 100 nM.

What is called Ki is the equilibrium dissociation constant of an inhibitor or competing ligand from its target.
